Measured values: article PMC4014123 (Acta Crystallographica Section D: Biological Crystallography, 2014)
“Also recorded” adds a separate entry of the source. Like-named read-outs stand apart in the source and are kept apart here.

Biological target: Cp-NanI (Clostridium perfringens, UniProt A0A0H2YQR1)
Assay: biochemical

Cp-NanI, sequence (A0A0H2YQR1 243-694 limits assumed): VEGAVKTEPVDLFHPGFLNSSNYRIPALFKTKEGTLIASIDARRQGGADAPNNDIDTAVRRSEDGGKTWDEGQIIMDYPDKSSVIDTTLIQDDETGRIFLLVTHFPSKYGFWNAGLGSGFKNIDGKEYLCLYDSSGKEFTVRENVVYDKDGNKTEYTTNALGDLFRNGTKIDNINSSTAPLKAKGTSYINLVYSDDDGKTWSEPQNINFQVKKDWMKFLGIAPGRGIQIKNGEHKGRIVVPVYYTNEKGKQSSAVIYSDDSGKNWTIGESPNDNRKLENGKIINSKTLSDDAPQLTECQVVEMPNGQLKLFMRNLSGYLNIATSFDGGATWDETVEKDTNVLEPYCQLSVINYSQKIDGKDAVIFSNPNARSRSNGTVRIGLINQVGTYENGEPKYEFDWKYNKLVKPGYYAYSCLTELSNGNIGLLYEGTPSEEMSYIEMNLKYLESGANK

Question: How did the IC50 (pH 5, read-out: IC50) turn out when “6-[(2E)-3,7-dimethylocta-2,6-dienyl]-5,7-dihydroxy-2-(3-hydroxy-4-methoxyphenyl)-2,3-dihydrochromen-4-one [3′-O-Methyldiplacone]” was run?
Answer: The IC50 was 14.3 µM.

Question: `COc1ccc(C2CC(=O)c3c(cc(O)c(C/C=C(\C)CCC=C(C)C)c3O)O2)cc1O` (stereo not shown) [4′-O-Methyldiplacone, 6-[(2E)-3,7-dimethylocta-2,6-dienyl]-5,7-dihydroxy-2-(3-hydroxy-4-methoxyphenyl)-2,3-dihydrochromen-4-one] was tested. Which IC50 did it give?
Answer: The IC50 was 12.9 µM.

Question: What does the source list for `CC(C)=CCC/C(C)=C/Cc1c(O)cc2c(c1O)C(=O)CC(c1ccc(O)c(O)c1)O2` (stereo not shown) [Diplacone, 2-(3,4-dihydroxyphenyl)-6-[(2E)-3,7-dimethylocta-2,6-dienyl]-5,7-dihydroxy-2,3-dihydrochromen-4-one]?
Answer: IC50: 0.11 µM; inhibition kinetics / mechanism: competitive kinetics; also recorded: time-dependent inhibitor; k 5: 0.201 ± 0.003 min⁻¹; k 6: 0.0017 ± 0.004 min⁻¹; Ki (K i): 0.04 µM; Ki (K i ^app): 0.065 ± 0.008 µM

Question: How did the IC50 turn out when `O=C1C[C@@H](c2ccc(O)c(O)c2)Oc2cc(O)cc(O)c21` [Eriodictyol, (2S)-2-(3,4-dihydroxyphenyl)-5,7-dihydroxy-4-chroman-one, reference compound] was run?
Answer: Its IC50 is 16.4 µM.

Question: For `CC(C)=CCC/C(C)=C/Cc1c(O)cc2c(c1O)C(=O)C[C@@H](c1ccc(O)cc1)O2` [Mimulone, (2S)-6-[(2E)-3,7-dimethylocta-2,6-dienyl]-5,7-dihydroxy-2-(4-hydroxyphenyl)-2,3-dihydrochromen-4-one], which IC50 is on record?
Answer: The IC50 was 6.1 µM.
